Measurements reported in patent US9283233B2, “Method for on-demand contraception” (LABORATOIRE HRA PHARMA, priority 2009, dated 2016).

How the values were obtained:
[1] = single dose of 50 mg, within 72 hours after unprotected intercourse; cited from earlier work
[2] = Multiple intakes of ulipristal acetate within a menstrual cycle after declared intercourse (pregnancy outcome); assay type: in vivo; settings: 30 mg after a declared intercourse, twice during a menstrual cycle; several women (5 in the table)
Experimental: Multiple Intakes of Ulipristal Acetate within a Menstrual Cycle
Several women received ulipristal acetate (30 mg) after a declared intercourse, twice during a menstrual cycle.

[3] = 3 months of continuous daily administration to healthy cycling volunteers; assessment of ovarian hormones, follicular development, endometrial histology, bleeding patterns; assay type: in vivo, women; settings: one patient, 10 mg/day, missed 2 days of drug (days 1 and 2) in third treatment cycle
Experimental: For that purpose, health cycling volunteers received 3 months of continuous daily administration of ulipristal acetate (2.5, 5 or 10 mg) or placebo.
Assessment of ovarian hormones, follicular development, endometrial histology, and menstrual bleeding patterns was carried out during the third month of treatment.
This made the inventors think that ulipristal acetate could be used as a contraceptive which could be taken on-demand, rather than everyday as any hormonal contraceptive pill.

For `CC(=O)O[C@]1(C(C)=O)CC[C@H]2[C@@H]3CCC4=CC(=O)CCC4=C3[C@@H](c3ccc(N(C)C)cc3)C[C@@]21C` [ulipristal acetate, 17α-acetoxy-11β-[4-N,N-dimethylamino-phenyl)-19-norpregna-4,9-diene-3,20-dione], the “safety and efficacy as emergency contraception” value [1] is given as “safe and efficacious”, the pregnancy [2] is given as “No pregnancy was observed” and the “luteal activity or ovulation” value [3] is given as “no sign of luteal activity or ovulation”.
